Experimental data published in US8895726B2, “Compounds derived from indole and pharmaceutical compositions containing them” (The Institut Curie, priority 2007, dated 2014).

Target: T1, interaction between hUPF1 and hSMG5 (Homo sapiens, UniProt Q92900+Q9UPR3)
T1 construct: a complementary analysis of the immunoprecipitates of the hUPF1 protein from HeLa cells; endogenous in cells; host or cells: HeLa
T1 sequence (Q92900 1-1129): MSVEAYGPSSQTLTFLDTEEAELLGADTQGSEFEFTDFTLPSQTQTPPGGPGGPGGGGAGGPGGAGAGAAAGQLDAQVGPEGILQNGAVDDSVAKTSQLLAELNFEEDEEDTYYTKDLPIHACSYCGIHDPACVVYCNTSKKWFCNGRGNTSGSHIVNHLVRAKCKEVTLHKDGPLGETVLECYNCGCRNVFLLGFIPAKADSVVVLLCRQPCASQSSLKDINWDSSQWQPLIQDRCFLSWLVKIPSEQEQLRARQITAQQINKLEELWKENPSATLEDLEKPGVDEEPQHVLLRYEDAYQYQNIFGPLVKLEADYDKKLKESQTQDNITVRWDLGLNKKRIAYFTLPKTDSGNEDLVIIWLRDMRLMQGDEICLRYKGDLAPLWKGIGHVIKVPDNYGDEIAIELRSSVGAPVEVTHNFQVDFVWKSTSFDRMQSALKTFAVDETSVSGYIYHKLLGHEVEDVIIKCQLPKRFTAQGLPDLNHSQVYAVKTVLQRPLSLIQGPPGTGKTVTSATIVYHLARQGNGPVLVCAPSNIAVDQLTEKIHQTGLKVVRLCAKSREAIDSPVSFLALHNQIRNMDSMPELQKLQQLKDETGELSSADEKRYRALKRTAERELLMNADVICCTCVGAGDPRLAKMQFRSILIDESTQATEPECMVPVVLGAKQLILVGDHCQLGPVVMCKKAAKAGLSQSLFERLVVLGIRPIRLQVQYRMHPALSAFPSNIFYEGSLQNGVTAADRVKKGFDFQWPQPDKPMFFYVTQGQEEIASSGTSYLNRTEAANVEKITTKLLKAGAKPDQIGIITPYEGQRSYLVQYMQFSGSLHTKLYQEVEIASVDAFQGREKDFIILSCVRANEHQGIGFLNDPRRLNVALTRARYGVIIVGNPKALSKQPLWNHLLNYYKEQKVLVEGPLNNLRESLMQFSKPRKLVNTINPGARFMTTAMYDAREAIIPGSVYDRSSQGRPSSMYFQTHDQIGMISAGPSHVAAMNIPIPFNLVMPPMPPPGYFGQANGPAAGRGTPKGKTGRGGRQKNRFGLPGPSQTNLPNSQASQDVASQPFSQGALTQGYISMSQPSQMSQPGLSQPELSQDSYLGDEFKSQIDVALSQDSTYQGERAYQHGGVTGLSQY
T1 sequence (Q9UPR3 2-1016 limits assumed): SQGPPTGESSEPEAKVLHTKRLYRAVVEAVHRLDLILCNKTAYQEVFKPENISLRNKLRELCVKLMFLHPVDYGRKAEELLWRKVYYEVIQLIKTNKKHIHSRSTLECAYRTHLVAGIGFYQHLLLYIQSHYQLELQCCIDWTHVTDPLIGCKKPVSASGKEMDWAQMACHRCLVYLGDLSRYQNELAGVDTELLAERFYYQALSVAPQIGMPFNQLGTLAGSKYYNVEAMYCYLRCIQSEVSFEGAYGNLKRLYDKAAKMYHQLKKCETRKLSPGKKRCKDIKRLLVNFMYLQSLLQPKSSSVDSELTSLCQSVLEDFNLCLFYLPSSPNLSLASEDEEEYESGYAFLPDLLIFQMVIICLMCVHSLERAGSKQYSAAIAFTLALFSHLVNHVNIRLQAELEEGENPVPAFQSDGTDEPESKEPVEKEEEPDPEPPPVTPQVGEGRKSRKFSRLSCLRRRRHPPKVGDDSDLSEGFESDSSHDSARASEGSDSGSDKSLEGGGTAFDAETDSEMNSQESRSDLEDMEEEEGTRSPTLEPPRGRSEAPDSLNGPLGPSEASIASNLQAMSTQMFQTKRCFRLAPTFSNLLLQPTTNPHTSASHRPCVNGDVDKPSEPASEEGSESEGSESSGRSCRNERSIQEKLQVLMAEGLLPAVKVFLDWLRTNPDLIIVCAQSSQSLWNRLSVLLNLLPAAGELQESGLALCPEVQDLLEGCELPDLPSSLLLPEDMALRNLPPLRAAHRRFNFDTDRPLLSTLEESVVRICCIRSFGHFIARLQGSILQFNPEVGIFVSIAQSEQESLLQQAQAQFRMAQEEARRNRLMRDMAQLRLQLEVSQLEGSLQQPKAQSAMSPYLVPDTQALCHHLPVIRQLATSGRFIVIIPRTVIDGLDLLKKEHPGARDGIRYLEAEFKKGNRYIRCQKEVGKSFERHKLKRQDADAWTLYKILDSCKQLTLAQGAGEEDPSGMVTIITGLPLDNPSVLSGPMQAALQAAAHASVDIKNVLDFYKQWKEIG
Test: hUPF1 immunoprecipitation, dephosphorylation complex
Format: cell-based
Details: HeLa cells
Procedure: Immunopurification of hUPF1 and western blot analysis were carried out according to a procedure described earlier (Lejeune and Maquat, 2004) by using an anti-hUPF1 antibody (Ohnishi et al., 2003), The western blot analyses were conducted by using a 1/250 dilution of anti-hUPF1, anti-hSMG5, anti-hSMG6 or anti-hSMG7 rabbit antibodies (Ohnishi et al., 2003), a 1/1000 dilution of anti-hUPF3/3X rabbit antibody (Ishigaki et al., 2001) or of anti-TUBILIN mouse antibody (SIGMA-ALDRICH). The proteins were detected by using the <<SuperSignal West Pico Chemiluminescent Substrate>> or <<SuperSignal West Femto Maximum Sensitivity Substrate>> (PIERCE).
In order to determine which of both mechanisms would be induced by the identified compounds, a complementary analysis of the immunoprecipitates of the hUPF1 protein from HeLa cells, either incubated or not in the presence of the compound 70, was carried out.
In a first phase, the analysis of hUPF1 with its dephosphorylation complex was carried out. The results have shown that hSMG5, hSMG6 and hSMG7 may be detected in cells treated with DMSO but that hSMG5 was undetectable on the other hand when the HeLa cells had been incubated beforehand with compound 70.

## Cc1c2ccnc(Cl)c2c(C)c2c1[nH]c1ncccc12 [Compound 70, 6-Chloro-5,1-0dimethyl-11H-pyrido[3′,2′:4,5]-pyrrolo[3,2-g]isoquinoline]
  hSMG5 in hUPF1 immunoprecipitates: undetectable
